Read-outs that look alike come from different tables or passages of the source.
How the values were obtained:
[1] = biological target: T1, APE1 (Homo sapiens, UniProt P27695); experiment: EMSA (gel mobility shift) of APE1 DNA binding capacity with THF-containing substrate; format: biochemical; set-up: the full length APE1 protein was successfully expressed and purified; made in house; host or cells: E. coli BL21/DE3; conditions: 100 µM drug preincubated with APE1 30 min
Experimental: In order to elucidate whether lucanthone and hycanthone could inhibit APE1 by interfering with APE1-DNA interaction through their DNA intercalation ability, we measured the DNA binding capacity of APE1 in the presence of lucanthone and hycanthone by incubating different concentrations of APE1 (10 nM and 25 nM) with 100 µM of lucanthone and/or hycanthone for 30 min and subsequently incubating the mixture with 25 nM of THF-containing substrate at 25°C in binding buffer (50 mM HEPES, pH 7.5, 150 mM NaCl, 0.1 mg/ml BSA, 0.5 mM EDTA and 1 mM DTT) for 30 min. THF stands for tetrahydrofuran that represents a synthetic abasic site. This is commonly inserted into an oligonucleotide substrate for measuring APE1 cleavage activity. 5′-incision of THF by APE1 results in a residue that mimics reduced 5′-deoxyribose phosphate group. Since THF group lacks the 1′-OH group, it blocks β-elimination that is required for mediating any dRP lyase activity. The sequence of the APE1 substrate with THF group is 5′[…]-3′ as described by Liu et al.
APE1-DNA complex was then separated from unbound substrate DNA by electrophoresis under native conditions in a 1% agarose-0.1% acrylamide gel at 4°C for 1.5 h as described previously [50]–[51].

[2] = biological target: T1, APE1; experiment: Direct binding by surface plasmon resonance (BIACORE 2000), APE1 immobilized on CM5 chip; set-up: the full length APE1 protein was successfully expressed and purified; made in house; host or cells: E. coli BL21/DE3; conditions: for kd: full length APE1; for kon: pH 7.4, read-out: ka
Experimental: APE1 (and its hydrophobic mutants) and lucanthone/hycanthone reaction stoichiometry was studied using surface plasmon resonance on a BIACORE 2000 apparatus (Biacore, GE Healthcare, Sweden) at the protein core facility in SUNYSB, to determine the affinity of the two drugs for APE1 (or NΔ40 APE1). APE1 and its mutants (10 µg) (RUmax values were 9000 RU units after immobilization) were immobilized on a CM5 chip by amine coupling (as per the manufacturer's instructions) and binding experiments were performed at 20°C in 10 mM HBS-EP buffer, pH 7.4. Lucanthone (or hycanthone) (20–700 µM) was injected as analyte over the sensor chip in HBS-EP buffer at 10 µl/min. The regeneration was achieved by 10 mM glycine-HCl, pH 3.0 between each analyte (drug) concentration.

[3] = biological target: T2, recombinant full length APE1 (Homo sapiens, UniProt P27695); experiment: Cleavage of recombinant full length APE1, Western blot
T2 construct: the full length APE1 protein was successfully expressed and purified; made in house; host or cells: E. coli BL21/DE3
Experimental: Total purified protein concentration was determined by the ratio of A280/A260. 250 ng of APE1 treated with lucanthone or hycanthone (0.05–100 µM) for 2 h at 37°C in final volume of 30 µl were mixed with an equal volume of gel loading buffer (0.001% bromophenol blue, 4% SDS, 10% 2-ME, 20% glycerol, and 125 mM Tris pH 6.8) and denatured at 95°C for 5 min. Total protein concentration in cell extracts was determined using the Bradford assay (BioRad, Hercules, CA) and 25 µg of total protein from soluble or insoluble cell fractions were mixed with an equal volume of gel loading buffer (0.001% bromophenol blue, 4% SDS, 10% 2-ME, 20% glycerol, and 125 mM Tris pH 6.8) and denatured at 95°C for 5 min. This mixture was separated by SDS-PAGE (4% stacking, 7.5% resolving gel) for 2–3 h at 40 mA on a BioRad MiniPROTEAN II Electrophoresis Cell. To detect proteins, proteins were transferred onto a trans-Blot nitrocellulose membrane (0.45 µm; BioRad) overnight at 4°C at 15 mA in standard Tris-Glycine buffer containing 20% ethanol. […] Chemi-luminescence was developed using an ECL kit according to the manufacturer's instructions and detected by exposing the blot to HyperfilmECL for 30 s–3 min. […]

[4] = biological target: T3, human Nth (Homo sapiens, UniProt P78549); experiment: Cleavage of human Nth by lucanthone (specificity control); conditions: data not shown
T3 sequence (P78549 23-304): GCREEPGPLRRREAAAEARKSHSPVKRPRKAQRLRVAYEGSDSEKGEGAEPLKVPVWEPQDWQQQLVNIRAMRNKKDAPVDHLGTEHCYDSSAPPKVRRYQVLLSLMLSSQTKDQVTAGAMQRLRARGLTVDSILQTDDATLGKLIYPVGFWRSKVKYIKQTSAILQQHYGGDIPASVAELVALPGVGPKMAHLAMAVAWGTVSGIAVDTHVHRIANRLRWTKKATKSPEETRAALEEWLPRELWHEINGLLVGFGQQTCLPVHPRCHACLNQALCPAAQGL

[5] = biological target: E.coli endonuclease IV (Nfo) (Escherichia coli, UniProt P0A6C1); experiment: Circular dichroism of E.coli Nfo with lucanthone; conditions: 140 µM lucanthone, 37°C, 60 min

T1 sequence (P27695 whole entry): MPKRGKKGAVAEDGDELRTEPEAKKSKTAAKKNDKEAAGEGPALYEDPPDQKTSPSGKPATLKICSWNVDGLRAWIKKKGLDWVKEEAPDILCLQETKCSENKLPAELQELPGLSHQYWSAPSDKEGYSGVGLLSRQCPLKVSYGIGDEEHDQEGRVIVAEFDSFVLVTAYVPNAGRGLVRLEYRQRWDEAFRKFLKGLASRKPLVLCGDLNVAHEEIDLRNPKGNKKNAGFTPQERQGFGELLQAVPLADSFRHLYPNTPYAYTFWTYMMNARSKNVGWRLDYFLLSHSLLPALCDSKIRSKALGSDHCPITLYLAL
T2 sequence (P27695 whole entry): as above

Q: Which results are given for `CCN(CC)CCNc1ccc(CO)c2sc3ccccc3c(=O)c12` [hycanthone]?
A: Inhibition of DNA binding capacity of APE1 [1]: not at all; APE1:drug stoichiometry [2]: ~1; RUmax [2]: 90 RU; Kd ([2]; BIACORE, 20°C, HBS-EP pH 7.4, read-out: KD (affinity constant)): 10 nM; RUligand ([2]; Conc 22 µM): 24 RU; RUligand ([2]; Conc 44 µM): 45 RU; RUligand ([2]; Conc 88 µM): 78 RU; RUligand ([2]; Conc 176 µM): 79 RU; RUligand ([2]; Conc 352 µM): 90 RU; RUligand ([2]; Conc 704 µM): 118 RU; kd [2]: 8.9e-07 s⁻¹; Ka, fold higher than lucanthone ([2]; hycanthone vs lucanthone): about 8 fold; kd of full length APE1, fold lower than for lucanthone ([2]; hycanthone vs lucanthone): ~100 fold; kon [2]: 90 M⁻¹ s⁻¹

Q: For `CCN(CC)CCNc1ccc(C)c2sc3ccccc3c(=O)c12` [lucanthone, 1-[2-diethylaminoethylamino]-4-methylthioxanthen-9-one], which “Inhibition of DNA binding capacity of APE1” value [1] is on record?
A: marginally inhibited

Q: And the “Lucanthone-induced cleavage of APE1 in presence of radical quenchers” value ([3]; 10 mM TRIS, 100 µM ascorbic acid or N-acetyl cysteine (purified APE1), 1% DMSO (cell extracts))?
A: significantly inhibited

Q: And the “Cleavage of recombinant APE1” value ([3]; 10-50 µM, 37°C, 2 h)?
A: increase in the formation of the 25 kDa fragment

Q: What about the “Cleavage of human Nth” value [4] of the same compound?
A: did not observe any cleavage

Q: And the “Conformational change of E.coli Nfo (CD)” value [5]?
A: little conformational changes

Q: And the “APE1:drug stoichiometry” value [2]?
A: may have been lower

Q: What about the Kd [2] of the same compound?
A: 89 nM

Q: And the RUmax [2]?
A: 91 RU

Q: And the RUligand ([2]; Conc 20 µM)?
A: −82 RU

Q: And the RUligand ([2]; Conc 40 µM)?
A: −26 RU

Q: And the RUligand ([2]; Conc 80 µM)?
A: 2.5 RU

Q: And the RUligand ([2]; Conc 160 µM)?
A: 77 RU

Q: And the RUligand ([2]; Conc 320 µM)?
A: 94 RU

Q: What about the RUligand ([2]; Conc 640 µM) of the same compound?
A: 62 RU

Q: What about the kd [2] of the same compound?
A: 7.76e-05 s⁻¹

Q: What about the kon [2] of the same compound?
A: 878 M⁻¹ s⁻¹

Reference: paper PMC3174134, “Lucanthone and Its Derivative Hycanthone Inhibit Apurinic Endonuclease-1 (APE1) by Direct Protein Binding” (PLoS ONE, 2011)
